How the values were obtained:
Human 5-lipoxygenase = biological target: T1, Human 5-lipoxygenase (Homo sapiens, UniProt P09917); assay: Activity of compounds against 5-LO enzyme (LTB4 measurement and/or fluorescence method); type: biochemical; conditions: for inhibition at 10 µM: 5-LO, single concentration of 10 uM in duplicate; for IC50: 6 or 11 point dose response in duplicate
T1 construct: purchased Cayman 60402; host or cells: insect cells
T1 sequence (P09917 1-674): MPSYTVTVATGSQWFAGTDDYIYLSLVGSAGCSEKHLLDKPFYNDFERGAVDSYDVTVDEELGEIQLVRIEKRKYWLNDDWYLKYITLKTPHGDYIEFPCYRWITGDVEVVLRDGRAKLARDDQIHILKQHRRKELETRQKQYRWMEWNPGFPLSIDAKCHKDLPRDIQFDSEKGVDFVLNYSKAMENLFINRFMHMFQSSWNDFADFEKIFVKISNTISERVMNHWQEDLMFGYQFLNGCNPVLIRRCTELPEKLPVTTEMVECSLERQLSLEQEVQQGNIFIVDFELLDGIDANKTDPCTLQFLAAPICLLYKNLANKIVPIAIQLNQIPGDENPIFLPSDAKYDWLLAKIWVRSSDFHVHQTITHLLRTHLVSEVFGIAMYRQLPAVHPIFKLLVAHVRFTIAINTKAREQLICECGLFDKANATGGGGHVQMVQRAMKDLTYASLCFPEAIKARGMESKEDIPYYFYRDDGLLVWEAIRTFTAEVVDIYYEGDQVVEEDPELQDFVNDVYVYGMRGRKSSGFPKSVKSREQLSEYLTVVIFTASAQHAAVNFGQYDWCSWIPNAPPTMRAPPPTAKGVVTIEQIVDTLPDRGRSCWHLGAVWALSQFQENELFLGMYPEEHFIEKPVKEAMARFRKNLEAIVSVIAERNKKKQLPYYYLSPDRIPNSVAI
How it was run: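 Insect-cell human 5-LO preincubated 15 min at RT with compound (pH 7.4, 2 mM CaCl2, 0.1 mM ATP, 1% DMSO), then 3 uM arachidonic acid for 5 min at 37 °C; LTB4 quantified by EIA and/or LC/MS/MS. Alternatively, fluorescence of 5-HpETE via H2DCFDA, 100 uM ATP, 3 uM arachidonic acid, 5 min, RT; single 10 uM screen then 6- or 11-point IC50.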

SMILES	inhibition at 10 µM (Human 5-lipoxygenase) [%]	melting point	IC50 (Human 5-lipoxygenase) [µM]
CCc1nc2ccc(Cl)cn2c1C(=O)NCc1ccc(C(F)(F)F)cc1 [compound 135, 6-Chloro-2-ethyl-N-(4-(trifluoromethyl)benzyl)imidazo[1,2-a]pyridine-3-carboxamide]	< 40	179 to 180 °C	
CCc1nc2ccccn2c1C(=O)NCc1ccc(N2CCN(c3ccc(F)cc3)CC2)cc1 [compound 227, 2-Ethyl-N-(4-(4-(4-fluorophenyl)piperazin-1-yl)benzyl)imidazo[1,2-a]pyridine-3-carboxamide]	> 69	189.2 °C	1 to 20
CCC1=C(C(=O)NCc2ccc(N3CCC(C)(C)CC3)cc2)N2C=CC(Cl)=CC2N1 (stereo not drawn) [compound 211, 7-Chloro-N-(4-(4,4-dimethylpiperidin-1-yl)benzyl)-2-ethyl-1,8a-dihydroimidazo[1,2-a]pyridine-3-carboxamide]	> 69	121.3 °C	1 to 20
CCc1nc2ccc(Cl)cn2c1C(=O)NCc1ccc(N2CC(C)CC(C)C2)cc1 (stereo not drawn) [compound 197, 6-Chloro-N-(4-(3,5-dimethylpiperidin-1-yl)benzyl)-2-ethylimidazo[1,2-a]pyridine-3-carboxamide]	> 69	157.2 to 158 °C	> 20
CCc1nc2ccc(Br)cn2c1C(=O)NCc1ccc(OCc2ccc(OC(F)(F)F)cc2)cc1 [compound 206, 6-Bromo-2-ethyl-N-(4-(4-(trifluoromethoxy)benzyloxy)benzyl)imidazo[1,2-a]pyridine-3-carboxamide]	< 40	189.7 °C	
CCc1nc2ccccn2c1C(=O)NCc1ccc(OCc2ccc(OC(F)(F)F)cc2)cc1 [compound 207, 2-Ethyl-N-(4-(4-(trifluoromethoxy)benzyloxy)benzyl)imidazo[1,2-a]pyridine-3-carboxamide]	> 69	138.7 °C	1 to 20
CCc1nc2cc(Cl)ccn2c1C(=O)NCC1CCN(Cc2ccc(OC(F)(F)F)cc2)CC1 [compound 140, 7-Chloro-2-ethyl-N-((1-(4-(trifluoromethoxy)benzyl)piperidin-4-yl)methyl)imidazo[1,2-a]pyridine-3-carboxamide]	40 to 69	145 to 146 °C	
CCc1nc2ccc(Cl)cn2c1C(=O)NCc1ccc(N2CCC3CCCCC3C2)cc1 (stereo not drawn) [compound 221, 6-Chloro-2-ethyl-N-(4-(octahydroisoquinolin-2(1H)-yl)benzyl)imidazo[1,2-a]pyridine-3-carboxamide]	< 40	141.7 °C	
CCc1nc2ccc(Cl)cn2c1C(=O)NCc1ccc(N2CCC(CO)CC2)cc1 [compound 230, 6-Chloro-2-ethyl-N-(4-(4-(hydroxymethyl)piperidin-1-yl)benzyl)imidazo[1,2-a]pyridine-3-carboxamide]	< 40	161.1 °C	
CCc1nc2ccc(Cl)cn2c1C(=O)NCc1ccc(N2CCN(c3ccc(OC(F)(F)F)cc3)CC2)cc1 [compound 158, 6-Chloro-2-ethyl-N-(4-(4-(4-(trifluoromethoxy)phenyl)piperazin-1-yl)benzyl)imidazo[1,2-a]pyridine-3-carboxamide]	40 to 69	206.5 to 207 °C	
CCc1nc2cc(Cl)ccn2c1C(=O)NCc1ccc(N2CCCCC2C)cc1 (stereo not drawn) [compound 252, 7-chloro-2-ethyl-N-(4-(2-methylpiperidin-1-yl)benzyl)imidazo[1,2-a]pyridine-3-carboxamide]	< 40	117.9 °C	
CCc1nc2ccc(Cl)cn2c1C(=O)NCc1cc2cc(Cl)ccc2s1 [compound 361, 6-chloro-N-((5-chlorobenzo[b]thiophen-2-yl)methyl)-2-ethylimidazo[1,2-a]pyridine-3-carboxamide]	< 40	> 220 °C	
CCc1nc2cc(Cl)ccn2c1C(=O)NCc1ccc(N2CCC(COc3ccc(OC(F)(F)F)cc3)CC2)cc1 [compound 214, 7-Chloro-2-ethyl-N-(4-(4-((4-(trifluoromethoxy)phenoxy)methyl)piperidin-1-yl)benzyl)imidazo[1,2-a]pyridine-3-carboxamide]	< 40	189.5 °C	
CCc1nc2cc(Cl)ccn2c1C(=O)NCc1ccc2oc(C3CCCCC3)nc2c1 [compound 299, 7-Chloro-N-((2-cyclohexylbenzo[d]oxazol-5-yl)methyl)-2-ethylimidazo[1,2-a]pyridine-3-carboxamide]	> 69	163 °C	< 1
CCc1nc2ccc(Cl)cn2c1C(=O)NCc1ccc(N2CC(C)OC(C)C2)cc1 (stereo not drawn) [compound 182, 6-Chloro-N-(4-(2,6-dimethylmorpholino)benzyl)-2-ethylimidazo[1,2-a]pyridine-3-carboxamide]	< 40	176 to 177 °C	
CCc1nc2ccc(Cl)cn2c1C=O [compound 145, 6-Chloro-2-ethylimidazo[1,2-a]pyridine-3-carbaldehyde]	< 40	115 to 116 °C	
CCc1nc2ccc(Cl)cn2c1C(=O)NCc1ccc(N2CCN(Cc3ccc(OC(F)(F)F)cc3)CC2)cc1 [compound 156, 6-Chloro-2-ethyl-N-(4-(4-(4-(trifluoromethoxy)benzyl)piperazin-1-yl)benzyl)imidazo[1,2-a]pyridine-3-carboxamide]	< 40	138.1 to 138.7 °C	
CCc1nc2cc(Cl)ccn2c1C(=O)NCc1ccc(C2CCOCC2)cc1 [compound 364, 7-chloro-2-ethyl-N-(4-(tetrahydro-2H-pyran-4-yl)benzyl)imidazo[1,2-a]pyridine-3-carboxamide]	< 40	> 156.6 °C (dec.)	
CCc1nc2c(F)cccn2c1C(=O)NCc1ccc(N2CCOCC2)cc1 [compound 242, 2-Ethyl-8-fluoro-N-(4-morpholinobenzyl)imidazo[1,2-a]pyridine-3-carboxamide]	< 40	197.3 °C	
CCc1nc2cc(Br)ccn2c1C(=O)NCc1ccc(N2CCN(c3ccc(F)cc3)CC2)cc1 [compound 304, 7-Bromo-2-ethyl-N-(4-(4-(4-fluorophenyl)piperazin-1-yl)benzyl)imidazo[1,2-a]pyridine-3-carboxamide]	> 69	214.6 °C	1 to 20
CCc1nc2ccc(Cl)cn2c1C(=O)NCC1CCN(Cc2ccc(F)cc2)CC1 [compound 139, 6-Chloro-2-ethyl-N-((1-(4-fluorobenzyl)piperidin-4-yl)methyl)imidazo[1,2-a]pyridine-3-carboxamide]	< 40	176 to 177 °C	
CCc1nc2ccccn2c1C(=O)NCc1ccc(N2CCC(c3ccc(OC(F)(F)F)cc3)CC2)cc1 [compound 266, 2-Ethyl-N-(4-(4-(4-(trifluoromethoxy)phenyl)piperidin-1-yl)benzyl)imidazo[1,2-a]pyridine-3-carboxamide]	> 69	146 °C	< 1
CCc1nc2ccc(Cl)cn2c1C(=O)NCC1CCN(Cc2ccc(OC(F)(F)F)cc2)CC1 [compound 138, 6-Chloro-2-ethyl-N-((1-(4-(trifluoromethoxy)benzyl)piperidin-4-yl)methyl)imidazo[1,2-a]pyridine-3-carboxamide]	40 to 69	171 to 172 °C	
CCc1nc2cc(Cl)ccn2c1C(=O)NCc1ccc(N2CCC(C(N)=O)CC2)cc1 [compound 292, N-(4-(4-Carbamoylpiperidin-1-yl)benzyl)-7-chloro-2-ethylimidazo[1,2-a]pyridine-3-carboxamide]	< 40	244 °C	
CCc1nc2ccc(F)cn2c1C(=O)NCc1ccc(N2CCN(c3ccc(F)cc3)CC2)cc1 [compound 228, 2-Ethyl-6-fluoro-N-(4-(4-(4-fluorophenyl)piperazin-1-yl)benzyl)imidazo[1,2-a]pyridine-3-carboxamide]	> 69	200.9 °C	1 to 20
CCc1nc2ccc(Cl)cn2c1C(=O)NCc1ccc(N2CCCC2)cc1 [compound 191, 6-Chloro-2-ethyl-N-(4-(pyrrolidin-1-yl)benzyl)imidazo[1,2-a]pyridine-3-carboxamide]	< 40	222 to 223 °C	
CCc1nc2c[n+]([O-])ccn2c1C(=O)NCc1ccc(-c2ccc(Cl)cc2)cc1 [compound 310, 3-(((4′-Chloro-[1,1′-biphenyl]-4-yl)methyl)carbamoyl)-2-ethylimidazo[1,2-a]pyrazine 7-oxide]	40 to 69	238 °C	1 to 20

— patent publication US9029389B2 (Institut Pasteur Korea, priority 2011, dated 2015)
